The values that follow are results of earlier work, collected in patent publication US8153634B2, “Carbinol derivatives having cyclic linker” (Kowa Company, Ltd., priority 2008, dated 2012).

The test system of the data set is LXRβ (versus LXRα). The conditions noted are these: reported in non-patent document 22.

For `O=C(O)Cc1ccc(COc2cccc(-c3c(Cc4ccccc4)cnc4c(C(F)(F)F)cccc34)c2)cc1` [WAY-254011], the “LXRβ-selective binding affinity, α/β ratio” value is 1 to 5.
